Where a name gives a salt, the structure may show the parent alone.

The target in the experiment is T1, KRAS G12C (Homo sapiens, UniProt P01116, G12C).
T1 construct: purchased Reactionbiology
T1 sequence (P01116 1-188 isoform P01116-2 G12C): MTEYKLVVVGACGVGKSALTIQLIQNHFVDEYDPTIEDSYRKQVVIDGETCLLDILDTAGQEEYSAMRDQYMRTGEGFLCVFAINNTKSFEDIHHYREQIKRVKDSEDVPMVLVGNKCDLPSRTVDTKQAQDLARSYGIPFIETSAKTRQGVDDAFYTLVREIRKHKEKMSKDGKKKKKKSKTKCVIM
The experiment can be described thus: KRAS G12C NEA-HTRF experiment (SOS1-catalyzed displacement of GDP by GTP). It is filed as biochemical. Summed up: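 His-tagged KRAS G12C preloaded with DY647-GDP was preincubated 15 min at 20 °C with compound, then exchanged with SOS1 (0.2 μM working solution) and GTP (200 μM working solution) for 2 h at 20 °C in the dark. HTRF 665/615 nm ratio with anti-His-Tb was normalised to T0 and no-compound controls; IC50 by four-parameter fit.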
As a reminder, the IC50 is the point on the concentration scale where inhibition reaches its midpoint. Lower therefore signals greater potency in that assay. For `C=CC(=O)N1CCN2C(=O)c3c(N4CC[C@H](OC)[C@@H]4C)nc(-c4c(O)cccc4F)c(Cl)c3OC[C@H]2C1` [Z347-1, (6aR)-8-acryloyl-4-chloro-3-(2-fluoro-6-hydroxyphenyl)-1-((2S,3S)-3-methoxy-2-methylpyrrolidin-1-yl)-6,6a,7,8,9,10-hexahydro-12H-pyrazino[2,1-c]pyrido[3,4-f][1,4]oxazepin-12-one], the IC50 was 12 nM. For `C=CC(=O)N1CCN2C(=O)c3c(N4C[C@H](N(C)CCOC)CC4(C)C)nc(-c4c(O)cccc4F)c(Cl)c3OC[C@H]2C1` (single isomer, unassigned) [Z296-2] the value was 39 nM; for `C=CC(=O)N1CCN2C(=O)c3c(N4CCN(C)C(C)C4C)nc(-c4c(O)cccc4F)c(Cl)c3OC[C@H]2C1` (stereo partly drawn) [Z369, (6aR)-8-acryloyl-4-chloro-3-(2-fluoro-6-hydroxyphenyl)-1-(2,3,4-trimethylpiperazin-1-yl)-6,6a,7,8,9,10-hexahydro-12H-pyrazino[2,1-c]pyrido[3,4-f][1,4]oxazepin-12-one], 68.6 nM; for `C=CC(=O)N1CCN2C(=O)c3c(N4C[C@](C)(O)CC4(C)C)nc(-c4c(O)cccc4F)c(Cl)c3OC[C@H]2C1` (single isomer, unassigned) [Z243-2], 76 nM.

`C=CC(=O)N1CCN2C(=O)c3c(N4CCN(C)C5(CC5)C4)nc(-c4c(O)cccc4F)c(Cl)c3OC[C@H]2C1` [Z83, (6aR)-8-acryloyl-4-chloro-3-(2-fluoro-6-hydroxyphenyl)-1-(4-methyl-4,7-diazaspiro[2 .5]octan-7-yl)-6,6a,7,8,9,10-hexahydro-12H-pyrazino[2,1-c]pyrido[3,4-f][1,4]oxazepin-12 (6aH)-one] came in with an IC50 of 111 nM.

Molecule `C=CC(=O)N1CCN2C(=O)c3c(N4CCN(C)C[C@@H]4C)nc(-c4c(F)ccc(F)c4O)c(Cl)c3OC[C@H]2C1` [Z356, (6aR)-8-acryloyl-4-chloro-3-(3,6-difluoro-2-hydroxyphenyl)-1-((S)-2,4-dimethylpiperazin-1-yl)-6,6a,7,8,9,10-hexahydro-12H-pyrazino[2,1-c]pyrido[3,4-f][1,4]oxazepin-12-one] came in with a concentration for half-maximal inhibition (IC50) of 161 nM. Consider `C=CC(=O)N1CCN2C(=O)c3c(N4CC(O)CC4(C)C)nc(-c4c(O)cccc4F)c(C)c3OC[C@H]2C1` (single isomer, unassigned) [Z336-2], for which the IC50 turned out to be 27 nM. For `C=CC(=O)N1CCN2C(=O)c3c(N4C[C@@H](OC)C[C@@H]4C)nc(-c4c(O)cccc4F)c(Cl)c3OC[C@H]2C1` [Z260a, (6aR)-8-acryloyl-4-chloro-3-(2-fluoro-6-hydroxyphenyl)-1-((2S,4S)-4-methoxy-2-methylpyrrolidin-1-yl)-6,6a,7,8,9,10-hexahydro-12H-pyrazino[2,1-c]pyrido[3,4-f][1,4]oxazepin-12-one] the value was 27 nM. Regarding `C=CC(=O)N1CCN2C(=O)c3c(N4CC[C@@H]5C[C@@H]54)nc(-c4c(O)cccc4F)c(Cl)c3OC[C@H]2C1` (single isomer, unassigned) [Z39-2], the half-maximal inhibitory concentration (IC50) is 66 nM. Next, `C=CC(=O)N1CCN2C(=O)c3c(N4Cc5nn(C)cc5[C@@H]4C)nc(-c4c(O)cccc4F)c(Cl)c3OC[C@H]2C1` (single isomer, unassigned) [Z345-2]: 41 nM; `C=CC(=O)N1CCN2C(=O)c3c(N4CCN(C)C(=O)[C@@H]4C)nc(-c4c(O)cccc4F)c(Cl)c3OC[C@H]2C1` [Z311-1, (6aR)-8-actyloyl-4-chloro-1-((S)-2,4-dimethyl-3-oxopiperazin-1-yl)-3-(2-fluoro-6-hydroxyphenyl)-6,6a,7,8,9,10-hexahydro-12H-pyrazino[2,1-c]pyrido[3,4-f][1,4]oxazepin-12-one]: 34 nM.

With `C=CC(=O)N1CCN2C(=O)c3c(N4C[C@@H](O)CC4(C)C)nc(-c4c(O)ccc(Cl)c4F)c(F)c3OC[C@H]2C1` (single isomer, unassigned) [Z340-1], the IC50 stood at 27 nM. For `C=CC(=O)N1CCN2C(=O)c3c(N4C[C@@H](N(C)C)CC4(C)C)nc(-c4c(O)cccc4F)c(Cl)c3OC[C@H]2C1` (single isomer, unassigned) [Z324-1] the value was 16 nM; for `C=CC(=O)N1CCN2C(=O)c3c(N4C[C@H](OC)CC4(C)C)nc(-c4c(O)cccc4F)c(Cl)c3OC[C@H]2C1` (single isomer, unassigned) [Z244-2], 5 nM; for `C=CC(=O)N1CCN2C(=O)c3c(N4Cc5cn(C)nc5C4C)nc(-c4c(O)cccc4F)c(Cl)c3OC[C@H]2C1` (some centres unmarked) [Z291-2], 18 nM.

`C=CC(=O)N1CCN2C(=O)c3c(N4C[C@@H](OC)CC4(C)C)nc(-c4c(O)cccc4F)c(F)c3OC[C@H]2C1` (single isomer, unassigned) [Z256a-1] registered a half-inhibitory concentration (IC50) of 41 nM. Next, `C=CC(=O)N1CCN2C(=O)c3c(N4Cc5cn(C)nc5[C@H]4C)nc(-c4c(O)cccc4F)c(Cl)c3OC[C@H]2C1` (single isomer, unassigned) [Z291-1S, trifluoroacetate]: 76 nM. For `C=CC(=O)N1CCN2C(=O)c3c(N4CCN(C)C[C@@H]4C)nc(-c4c(F)ccc(Cl)c4O)c(Cl)c3OC[C@H]2C1` [Z342, (6aR)-8-acryloyl-4-chloro-3-(3-chloro-6-fluoro-2-hydroxyphenyl)-1-((S)-2,4-dimethylpiperazin-1-yl)-6,6a,7,8,9,10-hexahydro-12H-pyrazino[2,1-c]pyrido[3,4-f][1,4]oxazepin-12-one], the IC50 was determined as 74 nM. Next, `C=CC(=O)N1CCN2C(=O)c3c(N4CC(C#N)CC4(C)C)nc(-c4c(O)cccc4F)c(Cl)c3OC[C@H]2C1` (stereo partly drawn) [Z275, (6aR)-8-acryloyl-1-(4-cyano-2,2-dimethylpyrrolidin-1-yl)-4-chloro-3-(2-fluoro-6-hydroxyphenyl)-6,6a,7,8,9,10-hexahydro-12H-pyrazino[2,1-c]pyrido[3,4-f][1,4]oxazepin-12-one]: 21 nM; `C=CC(=O)N1CCN2C(=O)c3c(N4CCN(C)C[C@@H]4C)nc(-c4c(O)ccc(Cl)c4F)c(Cl)c3OC[C@H]2C1` [Z343, (6aR)-8-acryloyl-4-chloro-3-(3-chloro-2-fluoro-6-hydroxyphenyl)-1-((S)-2,4-dimethylpiperazin-1-yl)-6,6a,7,8,9,10-hexahydro-12H-pyrazino[2,1-c]pyrido[3,4-f][1,4]oxazepin-12-one]: 101 nM; `C=CC(=O)N1CCN2C(=O)c3c(N4C[C@@H](N(C)CCOC)C[C@@H]4C)nc(-c4c(O)cccc4F)c(Cl)c3OC[C@H]2C1` [Z358-1]: 26.4 nM.

With `C=CC(=O)N1CCN2C(=O)c3c(N4CC(N(C)CCOC)CC4(C)C)nc(-c4c(O)cccc4F)c(Cl)c3OCC2C1` (single isomer, unassigned) [Z296-1], the IC50 amounted to 7 nM.

For `C=CC(=O)N1CCN2C(=O)c3c(N4CCC(O)C4(C)C)nc(-c4c(O)cccc4F)c(Cl)c3OC[C@H]2C1` (stereo partly drawn) [Z241, (6aR)-8-acryloyl-1-(3-hydroxy-2,2-dimethylpyrrolidin-1-yl)-4-chloro-3-(2-fluoro-6-hydroxyphenyl)-6,6a,7,8,9,10-hexahydro-12H-pyrazino[2,1-c]pyrido[3,4-f][1,4]oxazepin-12-one], the IC50 was found to be 18 nM. For `C=CC(=O)N1CCN2C(=O)c3c(N4CC(N5CCOCC5)CC4(C)C)nc(-c4c(O)cccc4F)c(Cl)c3OC[C@H]2C1` (stereo partly drawn) [Z344, (6aR)-8-acryloyl-4-chloro-1-((2,2-dimethyl-4-morpholinopyrrolidin-1-yl))-3-(2-fluoro-6-hydroxyphenyl)-6,6a,7,8,9,10-hexahydro-12H-pyrazino[2,1-c]pyrido[3,4-f][1,4]oxazepin-12-one] the value was 10 nM; for `C=CC(=O)N1CCN2C(=O)c3c(N4CC[C@@H](OC)[C@@H]4C)nc(-c4c(O)cccc4F)c(Cl)c3OC[C@H]2C1` [Z338-1, (6aR)-8-acryloyl-4-chloro-3-(2-fluoro-6-hydroxyphenyl)-1-((2S,3R)-3-methoxy-2-methylpyrrolidin-1-yl)-6,6a,7,8,9,10-hexahydro-12H-pyrazino[2,1-c]pyrido[3,4-f][1,4]oxazepin-12-one], 39 nM; for `C=CC(=O)N1CCN2C(=O)c3c(N4CC[C@H](OC)C4(C)C)nc(-c4c(O)cccc4F)c(Cl)c3OC[C@H]2C1` (single isomer, unassigned) [Z241a-1], 13 nM. Next, `C=CC(=O)N1CCN2C(=O)c3c(N4C[C@@](C)(O)CC4(C)C)nc(-c4c(O)cccc4F)c(F)c3OC[C@H]2C1` (single isomer, unassigned) [Z256b-1]: 33 nM; `C=CC(=O)N1CCN2C(=O)c3c(N4C[C@H](OC)CC4(C)C)nc(-c4c(O)cccc4F)c(F)c3OC[C@H]2C1` (single isomer, unassigned) [Z256a-2]: 18 nM; `C=CC(=O)N1CCN2C(=O)c3c(N4C[C@@H](OC)C[C@@H]4C)nc(-c4c(O)cccc4F)c(F)c3OC[C@H]2C1` [Z359-1, (6aR)-8-actyloyl-4-fluoro-3-(2-fluoro-6-hydroxyphenyl)-1-((2S,4S)-4-methoxy-2-methylpyrrolidin-1-yl)-6,6a,7,8,9,10-hexahydro-12H-pyrazino[2,1-c]pyrido[3,4-f][1,4]oxazepin-12-one]: 83.8 nM.

`C=CC(=O)N1CCN2C(=O)c3c(N4CCN(C5CC5)C[C@@H]4C)nc(-c4c(O)cccc4F)c(Cl)c3OC[C@H]2C1` [Z312-1, (6aR)-8-acryloyl-4-chloro-1-((S)-4-cyclopropyl-2-methylpiperazin-1-yl)-3-(2-fluoro-6-hydroxyphenyl)-6,6a,7,8,9,10-hexahydro-12H-pyrazino[2,1-c]pyrido[3,4-f][1,4]oxazepin-12-one] gave an IC50 of 134 nM. Next, `C=CC(=O)N1CCN2C(=O)c3c(N4CC(C#N)CC4(C)C)nc(-c4c(O)cccc4F)c(F)c3OC[C@H]2C1` (some centres unmarked) [Z335]: 78 nM.

Consider `C=CC(=O)N1CCN2C(=O)c3c(N4CCN(C5COC5)C[C@@H]4C)nc(-c4c(O)cccc4F)c(Cl)c3OC[C@H]2C1` (single isomer, unassigned) [Z239-1], for which the half-inhibitory concentration (IC50) was 124 nM.
